Source: ChEMBL document CHEMBL3044795, “Synthesis and biological evaluation of novel benzoquinones as potential antimicrobial agents” (2013)
Values after ≈ are worked out from the molar mass of the structure shown.

Legend:
Type in all cases: functional
[1] = system: Candida albicans; assay: Antifungal activity against Candida albicans DSM 70014 assessed as diamater of growth inhibition zone after 48 hr by agar cup diffusion method
[2] = system: Candida albicans; assay: Antifungal activity against Candida albicans DSM 70014 assessed as growth inhibition after 48 hr by two-fold serial dilution method; conditions: DSM 70014, 48 h
[3] = system: Bacillus subtilis; assay: Antibacterial activity against Bacillus subtilis ATCC 6633 assessed as diamater of growth inhibition zone after 24 hr by agar cup diffusion method
[4] = system: Pseudomonas aeruginosa; assay: Ratio of Ampicillin MIC to compound MIC for Pseudomonas aeruginosa ATCC 10145
[5] = system: Candida albicans; assay: Antifungal activity against Candida albicans DSM 70014 assessed as growth inhibition after 48 hr; conditions: DSM 70014, 48 h
[6] = system: Pseudomonas aeruginosa; assay: Antibacterial activity against Pseudomonas aeruginosa ATCC 10145 assessed as diamater of growth inhibition zone after 24 hr by agar cup diffusion method
[7] = system: Escherichia coli; assay: Ratio of compound MIC to Ampicillin MIC for Escherichia coli ATCC 11775
[8] = system: Escherichia coli; assay: Antibacterial activity against Escherichia coli ATCC 11775 assessed as growth inhibition after 24 hr by two-fold serial dilution method; conditions: ATCC 11775, 24 h
[9] = system: Bacillus subtilis; assay: Antibacterial activity against Bacillus subtilis ATCC 6633 assessed as growth inhibition after 24 hr; conditions: ATCC 6633, 24 h
[10] = system: Pseudomonas aeruginosa; assay: Antibacterial activity against Pseudomonas aeruginosa ATCC 10145 assessed as growth inhibition after 24 hr; conditions: ATCC 10145, 24 h
[11] = system: Staphylococcus aureus; assay: Antibacterial activity against Staphylococcus aureus DSM 1104 assessed as diamater of growth inhibition zone after 24 hr by agar cup diffusion method
[12] = system: Staphylococcus aureus; assay: Antibacterial activity against Staphylococcus aureus DSM 1104 assessed as growth inhibition after 24 hr by two fold serial dilution method; conditions: DSM 1104, 24 h
[13] = system: Bacillus subtilis; assay: Antibacterial activity against Bacillus subtilis ATCC 6633 assessed as growth inhibition after 24 hr by two fold serial dilution method; conditions: ATCC 6633, 24 h
[14] = system: Escherichia coli; assay: Antibacterial activity against Escherichia coli ATCC 11775 assessed as growth inhibition after 24 hr; conditions: ATCC 11775, 24 h
[15] = system: Escherichia coli; assay: Antibacterial activity against Escherichia coli ATCC 11775 assessed as diamater of growth inhibition zone after 24 hr by agar cup diffusion method
[16] = system: Staphylococcus aureus; assay: Antibacterial activity against Staphylococcus aureus DSM 1104 assessed as growth inhibition after 24 hr; conditions: DSM 1104, 24 h
[17] = system: Pseudomonas aeruginosa; assay: Antibacterial activity against Pseudomonas aeruginosa ATCC 10145 assessed as growth inhibition after 24 hr by two-fold serial dilution method; conditions: ATCC 10145, 24 h

Row | MIC [2] [µg/mL] | MIC [8] [µg/mL] | MIC [12] [µg/mL] | MIC [13] [µg/mL] | MIC [17] [µg/mL] | Compound | diameter of the inhibition zone (DIZ) [1] [mm] | diameter of the inhibition zone (DIZ) [3] [mm] | Ratio [4] | MFC [5] [µg/mL] | diameter of the inhibition zone (DIZ) [6] [mm] | Ratio [7] | MBC [9] [µg/mL] | MBC [10] [µg/mL] | diameter of the inhibition zone (DIZ) [11] [mm] | MBC [14] [µg/mL] | diameter of the inhibition zone (DIZ) [15] [mm] | MBC [16] [µg/mL]
1 | 50 (≈ 116 µM) | 25 (≈ 58.2 µM) | 50 (≈ 116 µM) | 50 (≈ 116 µM) | 12.5 (≈ 29.1 µM) | COc1ccc(/C=N/N=c2\scc(C3=CC(=O)C=CC3=O)n2-c2ccc(C)cc2)cc1 | 14 | 14 | 4 | 50 (≈ 116 µM) | 15 | 2 | 50 (≈ 116 µM) | 25 (≈ 58.2 µM) | 16 | 50 (≈ 116 µM) | 16 | 50 (≈ 116 µM)
2 | 50 (≈ 120 µM) | 50 (≈ 120 µM) | 50 (≈ 120 µM) | 50 (≈ 120 µM) | 50 (≈ 120 µM) | COc1ccc(/C=N/N=c2\scc(-c3cc(O)ccc3O)n2-c2ccccc2)cc1 | 12 | 15 | – | 50 (≈ 120 µM) | 14 | – | 50 (≈ 120 µM) | 50 (≈ 120 µM) | 14 | 50 (≈ 120 µM) | 14 | 50 (≈ 120 µM)
3 | 25 (≈ 55.9 µM) | 12.5 (≈ 27.9 µM) | 50 (≈ 112 µM) | 12.5 (≈ 27.9 µM) | 12.5 (≈ 27.9 µM) | COc1ccc(OC)c(/C=N/N=c2\scc(-c3cc(O)ccc3O)n2-c2ccccc2)c1 | 14 | 15 | – | 50 (≈ 112 µM) | 16 | – | 25 (≈ 55.9 µM) | 25 (≈ 55.9 µM) | 16 | 25 (≈ 55.9 µM) | 18 | 50 (≈ 112 µM)
4 | 12.5 (≈ 28.8 µM) | 12.5 (≈ 28.8 µM) | 12.5 (≈ 28.8 µM) | 50 (≈ 115 µM) | 50 (≈ 115 µM) | COc1cc(/C=N/N=c2\scc(-c3cc(O)ccc3O)n2-c2ccccc2)ccc1O | 15 | 16 | – | 25 (≈ 57.7 µM) | 15 | – | 50 (≈ 115 µM) | 50 (≈ 115 µM) | 15 | 25 (≈ 57.7 µM) | 14 | 25 (≈ 57.7 µM)
5 | 100 (≈ 231 µM) | 50 (≈ 115 µM) | 100 (≈ 231 µM) | 12.5 (≈ 28.8 µM) | 12.5 (≈ 28.8 µM) | COc1ccc(/C=N/N=c2\scc(-c3cc(O)ccc3O)n2-c2ccccc2)cc1O | 14 | 15 | 4 | 100 (≈ 231 µM) | 12 | – | 25 (≈ 57.7 µM) | 25 (≈ 57.7 µM) | 16 | 50 (≈ 115 µM) | 24 | 100 (≈ 231 µM)
6 | 100 (≈ 232 µM) | 12.5 (≈ 29 µM) | 50 (≈ 116 µM) | 50 (≈ 116 µM) | 50 (≈ 116 µM) | COc1ccc(/C=N/N=c2\scc(-c3cc(O)ccc3O)n2-c2ccc(C)cc2)cc1 | 15 | 13 | – | 100 (≈ 232 µM) | 16 | – | 50 (≈ 116 µM) | 50 (≈ 116 µM) | 15 | 25 (≈ 57.9 µM) | 15 | 50 (≈ 116 µM)
7 | 50 (≈ 108 µM) | 25 (≈ 54.2 µM) | 12.5 (≈ 27.1 µM) | 12.5 (≈ 27.1 µM) | 25 (≈ 54.2 µM) | COc1ccc(OC)c(/C=N/N=c2\scc(-c3cc(O)ccc3O)n2-c2ccc(C)cc2)c1 | 14 | 17 | 2 | 50 (≈ 108 µM) | 14 | – | 25 (≈ 54.2 µM) | 50 (≈ 108 µM) | 14 | 50 (≈ 108 µM) | 17 | 25 (≈ 54.2 µM)
8 | 12.5 (≈ 27.9 µM) | 25 (≈ 55.9 µM) | 25 (≈ 55.9 µM) | 25 (≈ 55.9 µM) | 25 (≈ 55.9 µM) | COc1ccc(/C=N/N=c2\scc(-c3cc(O)ccc3O)n2-c2ccc(C)cc2)cc1O | 14 | 14 | 2 | 25 (≈ 55.9 µM) | 13 | – | 50 (≈ 112 µM) | 50 (≈ 112 µM) | 16 | 50 (≈ 112 µM) | 14 | 50 (≈ 112 µM)
